Results from ChEMBL document CHEMBL1201861, “Genomics of Drug Sensitity in Cancer screening data, Wellcome Trust Sanger Institute”.
Where “and” joins values, the source holds several entries; their conditions need not be identical. Identical values can stand only once. Where a SMILES comes first, the peptide text is derived from it. The star is where a group is joined. Cbz = O=C(OCc1ccccc1)*

How the values were obtained:
T98G = assay: cells; assay type: functional, cell-based; conditions: Homo sapiens;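 further: growth inhibition of T98G cells, read out by a cell viability assay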
Description: SANGER: Inhibition of human T98G cell growth in a cell viability assay.

A 172 = assay: cells; assay type: functional, cell-based; conditions: Homo sapiens;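 further: growth inhibition of A172 cells, measured with a cell viability readout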
Description: SANGER: Inhibition of human A172 cell growth in a cell viability assay.

HCC1954 = assay: cells; assay type: functional, cell-based; conditions: Homo sapiens;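 further: growth inhibition of human HCC1954 cells, read out with a cell viability assay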
Description: SANGER: Inhibition of human HCC1954 cell growth in a cell viability assay.

GMS-10 = assay: cells; assay type: functional, cell-based; conditions: Homo sapiens;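 further: growth inhibition of GMS-10 cells, read out as cell viability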
Description: SANGER: Inhibition of human GMS-10 cell growth in a cell viability assay.

COLO-792 = assay: cells; assay type: functional, cell-based; conditions: Homo sapiens
Description: SANGER: Inhibition of human COLO-792 cell growth in a cell viability assay.

CAL-51 = assay: cells; assay type: functional, cell-based; conditions: Homo sapiens;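 further: human CAL-51 cell line, growth inhibition read out via a cell viability assay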
Description: SANGER: Inhibition of human CAL-51 cell growth in a cell viability assay.

UMUC3 = assay: cells; assay type: functional, cell-based; conditions: Homo sapiens;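 further: growth inhibition of human UM-UC-3 cells, read out with a cell viability assay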
Description: SANGER: Inhibition of human UM-UC-3 cell growth in a cell viability assay.

ACHN = assay: cells; assay type: functional, cell-based; conditions: Homo sapiens;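 further: cell viability read-out used to gauge how strongly growth of human ACHN cells is suppressed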
Description: SANGER: Inhibition of human ACHN cell growth in a cell viability assay.

A204 = assay: cells; assay type: functional, cell-based; conditions: Homo sapiens;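 further: growth inhibition of human A204 cells, read out with a cell viability assay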
Description: SANGER: Inhibition of human A204 cell growth in a cell viability assay.

HuO-3N1 = assay: cells; assay type: functional, cell-based; conditions: Homo sapiens;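 further: cell viability readout used to measure how strongly compounds suppress proliferation of human HuO-3N1 cells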
Description: SANGER: Inhibition of human HuO-3N1 cell growth in a cell viability assay.

LoVo = assay: cells; assay type: functional, cell-based; conditions: Homo sapiens;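 further: growth inhibition of human LoVo cells, read out with a cell viability assay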
Description: SANGER: Inhibition of human LoVo cell growth in a cell viability assay.

EFM-19 = assay: cells; assay type: functional, cell-based; conditions: Homo sapiens;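 further: growth inhibition of human EFM-19 cells, measured in a cell viability assay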
Description: SANGER: Inhibition of human EFM-19 cell growth in a cell viability assay.

NCI-H2347 = assay: cells; assay type: functional, cell-based; conditions: Homo sapiens;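 further: growth inhibition of the cell line, read out with a cell viability assay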
Description: SANGER: Inhibition of human NCI-H2347 cell growth in a cell viability assay.

ABC-1 = assay: cells; assay type: functional, cell-based; conditions: Homo sapiens;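 further: growth inhibition of human ABC-1 cells, read out by a cell viability assay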
Description: SANGER: Inhibition of human ABC-1 cell growth in a cell viability assay.

KYSE-180 = assay: cells; assay type: functional, cell-based; conditions: Homo sapiens;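 further: growth inhibition of KYSE-180 cells, read out with a cell viability assay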
Description: SANGER: Inhibition of human KYSE-180 cell growth in a cell viability assay.

HuP-T3 = assay: cells; assay type: functional, cell-based; conditions: Homo sapiens;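 further: HuP-T3 cell growth inhibition, read out with a cell viability assay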
Description: SANGER: Inhibition of human HuP-T3 cell growth in a cell viability assay.

NCI-H2030 = assay: cells; assay type: functional, cell-based; conditions: Homo sapiens;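 further: growth inhibition of human NCI-H2030 cells, read out by a cell viability assay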
Description: SANGER: Inhibition of human NCI-H2030 cell growth in a cell viability assay.

MDA-MB-415 = assay: cells; assay type: functional, cell-based; conditions: Homo sapiens
A2058 = assay: cells; assay type: functional, cell-based; conditions: Homo sapiens;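 further: reduction of A2058 cell growth, read out with a viability assay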
Description: SANGER: Inhibition of human A2058 cell growth in a cell viability assay.

NCI-H441 = assay: cells; assay type: functional, cell-based; conditions: Homo sapiens;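 further: growth inhibition of NCI-H441 cells, read out with a cell viability assay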
Description: SANGER: Inhibition of human NCI-H441 cell growth in a cell viability assay.

LK-2 = assay: cells; assay type: functional, cell-based; conditions: Homo sapiens;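 further: growth inhibition of LK-2 cells, read out with a viability assay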
Description: SANGER: Inhibition of human LK-2 cell growth in a cell viability assay.

J82 = assay: cells; assay type: functional, cell-based; conditions: Homo sapiens;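 further: growth inhibition of J82 cells, read out with a cell viability assay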
Description: SANGER: Inhibition of human J82 cell growth in a cell viability assay.

KYSE-510 = assay: cells; assay type: functional, cell-based; conditions: Homo sapiens;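 further: cell viability readout used to measure how strongly growth of the cell line is suppressed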
Description: SANGER: Inhibition of human KYSE-510 cell growth in a cell viability assay.

Calu-3 = assay: cells; assay type: functional, cell-based; conditions: Homo sapiens;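 further: growth inhibition of human Calu-3 cells, determined with a cell viability assay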
Description: SANGER: Inhibition of human Calu-3 cell growth in a cell viability assay.

YAPC = assay: cells; assay type: functional, cell-based; conditions: Homo sapiens;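 further: growth inhibition of YAPC cells, measured with a cell viability assay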
Description: SANGER: Inhibition of human YAPC cell growth in a cell viability assay.

SAOS-2 = assay: cells; assay type: functional, cell-based; conditions: Homo sapiens;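 further: growth inhibition of human Saos-2 cells determined by a cell viability assay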
Description: SANGER: Inhibition of human Saos-2 cell growth in a cell viability assay.

COLO-679 = assay: cells; assay type: functional, cell-based; conditions: Homo sapiens
Description: SANGER: Inhibition of human COLO-679 cell growth in a cell viability assay.

BXPC-3 = assay: cells; assay type: functional, cell-based; conditions: Homo sapiens;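 further: growth inhibition of human BxPC-3 cells, read out by a cell viability assay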
Description: SANGER: Inhibition of human BxPC-3 cell growth in a cell viability assay.

SCC-25 = assay: cells; assay type: functional, cell-based; conditions: Homo sapiens;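 further: growth inhibition of SCC-25 cells, measured with a cell viability assay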
Description: SANGER: Inhibition of human SCC-25 cell growth in a cell viability assay.

SK-HEP1 = assay: cells; assay type: functional, cell-based, SK-HEP-1; conditions: Homo sapiens;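 further: cell viability readout used to quantify reduction in proliferation of human SK-HEP-1 cells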
Description: SANGER: Inhibition of human SK-HEP-1 cell growth in a cell viability assay.

COLO-741 = assay: cells; assay type: functional, cell-based; conditions: Homo sapiens
Description: SANGER: Inhibition of human COLO-741 cell growth in a cell viability assay.

HOP-92 = assay: cells; assay type: functional, cell-based; conditions: Homo sapiens;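 further: cell viability readout, with IC50 reflecting inhibition of HOP-92 cell growth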
Description: SANGER: Inhibition of human HOP-92 cell growth in a cell viability assay.

HCC70 = assay: cells; assay type: functional, cell-based; conditions: Homo sapiens;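 further: cell viability assay measuring how strongly the compound suppresses proliferation of HCC70 cells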
Description: SANGER: Inhibition of human HCC70 cell growth in a cell viability assay.

NB7 = assay: cells; assay type: functional, cell-based, Homo sapiens;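 further: growth inhibition of NB7 cells, read out with a cell viability assay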
Description: SANGER: Inhibition of human NB7 cell growth in a cell viability assay.

OVCAR-3 = assay: cells; assay type: functional, cell-based; conditions: Homo sapiens;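 further: growth inhibition of human OVCAR-3 cells, determined by a cell viability assay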
Description: SANGER: Inhibition of human OVCAR-3 cell growth in a cell viability assay.

Ca-Ski = assay: cells; assay type: functional, cell-based; conditions: Homo sapiens;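 further: cell viability assay measuring inhibition of Ca-Ski cell growth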
Description: SANGER: Inhibition of human Ca-Ski cell growth in a cell viability assay.

CAKI-1 = assay: cells; assay type: functional, cell-based; conditions: Homo sapiens;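 further: growth inhibition of CAKI-1 cells, measured by a cell viability assay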
Description: SANGER: Inhibition of human CAKI-1 cell growth in a cell viability assay.

M14 = assay: cells; assay type: functional, cell-based; conditions: Homo sapiens;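 further: growth inhibition of M14 cells, read out with a cell viability assay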
Description: SANGER: Inhibition of human M14 cell growth in a cell viability assay.

KP-4 = assay: cells; assay type: functional, cell-based; conditions: Homo sapiens;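 further: human KP-4 cells, with growth inhibition read out through a cell viability assay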
Description: SANGER: Inhibition of human KP-4 cell growth in a cell viability assay.

FaDu = assay: cells; assay type: functional, cell-based; conditions: Homo sapiens;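 further: cell viability readout of growth inhibition in FaDu cells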
Description: SANGER: Inhibition of human FADU cell growth in a cell viability assay.

NCI-H1792 = assay: cells; assay type: functional, cell-based; conditions: Homo sapiens;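 further: growth inhibition of human NCI-H1792 cells, read out as cell viability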
Description: SANGER: Inhibition of human NCI-H1792 cell growth in a cell viability assay.

HT-29 = assay: cells; assay type: functional, cell-based; conditions: Homo sapiens;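 further: growth inhibition of human HT-29 cells, read out by a cell viability assay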
Description: SANGER: Inhibition of human HT-29 cell growth in a cell viability assay.

NCI-H2405 = assay: cells; assay type: functional, cell-based; conditions: Homo sapiens;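 further: growth inhibition of the human cell line, read out with a cell viability assay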
Description: SANGER: Inhibition of human NCI-H2405 cell growth in a cell viability assay.

SR = assay: cells; assay type: functional, cell-based, Homo sapiens
Description: SANGER: Inhibition of human SR cell growth in a cell viability assay.

KMS-12-PE = assay: cells; assay type: functional, cell-based, Homo sapiens;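 further: growth inhibition of human KMS-12-PE cells, measured with a cell viability assay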
Description: SANGER: Inhibition of human KMS-12-PE cell growth in a cell viability assay.

MDA-MB-134-VI = assay: cells; assay type: functional, cell-based, Homo sapiens
Description: SANGER: Inhibition of human MDA-MB-134-VI cell growth in a cell viability assay.

CMK = assay: cells; assay type: functional, cell-based, Homo sapiens;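 further: growth inhibition of CMK cells, read out as cell viability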
Description: SANGER: Inhibition of human CMK cell growth in a cell viability assay.

NCI-H1963 = assay: cells; assay type: functional, cell-based, Homo sapiens;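 further: cell growth inhibition of the human line, determined with a cell viability assay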
Description: SANGER: Inhibition of human NCI-H1963 cell growth in a cell viability assay.

SCC-3 = assay: cells; assay type: functional, cell-based, Homo sapiens;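 further: cell viability assay measuring inhibition of SCC-3 cell growth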
Description: SANGER: Inhibition of human SCC-3 cell growth in a cell viability assay.

LB647-SCLC = assay: cells; assay type: functional, cell-based, Homo sapiens;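 further: cell growth inhibition, read out by a viability assay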
Description: SANGER: Inhibition of human LB647-SCLC cell growth in a cell viability assay.

TALL-1 = assay: cells; assay type: functional, cell-based, Homo sapiens;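 further: growth inhibition of cultured human TALL-1 cells, read out by a cell viability assay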
Description: SANGER: Inhibition of human TALL-1 cell growth in a cell viability assay.

BOKU = assay: cells; assay type: functional, cell-based; conditions: Homo sapiens;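 further: growth inhibition of the human BOKU cell line, read out by a cell viability assay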
Description: SANGER: Inhibition of human BOKU cell growth in a cell viability assay.

MONO-MAC-6 = assay: cells; assay type: functional, cell-based, Homo sapiens;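 further: cell viability assay measuring growth inhibition of human MONO-MAC-6 cells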
Description: SANGER: Inhibition of human MONO-MAC-6 cell growth in a cell viability assay.

DG-75 = assay: cells; assay type: functional, cell-based, Homo sapiens
Description: SANGER: Inhibition of human DG-75 cell growth in a cell viability assay.

SIMA = assay: cells; assay type: functional, cell-based, Homo sapiens
Description: SANGER: Inhibition of human SIMA cell growth in a cell viability assay.

CP66-MEL = assay: cells; assay type: functional, cell-based; conditions: Homo sapiens
Description: SANGER: Inhibition of human CP66-MEL cell growth in a cell viability assay.

RL = assay: cells; assay type: functional, cell-based, Homo sapiens
Description: SANGER: Inhibition of human RL cell growth in a cell viability assay.

RPMI 8402 = assay: SANGER: Inhibition of human RPMI-8402 cell growth in a cell viability assay.; assay type: functional, cell-based

CC1(C)CCC(c2ccc(Cl)cc2)=C(CN2CCN(c3ccc(C(=O)NS(=O)(=O)c4ccc(N[C@H](CCN5CCOCC5)CSc5ccccc5)c(S(=O)(=O)C(F)(F)F)c4)cc3)CC2)C1 [NAVITOCLAX]
IC50 (T98G): > 2000 nM | IC50 (A 172): > 2000 nM | IC50 (HCC1954): > 2000 nM | IC50 (GMS-10): > 2000 nM | IC50 (COLO-792): 1200 nM | IC50 (CAL-51): > 2000 nM | IC50 (UMUC3): > 2000 nM | IC50 (ACHN): > 2000 nM | IC50 (A204): > 2000 nM | IC50 (HuO-3N1): > 2000 nM | IC50 (LoVo): > 2000 nM | IC50 (EFM-19): > 2000 nM | IC50 (NCI-H2347): > 2000 nM | IC50 (ABC-1): > 2000 nM | IC50 (KYSE-180): > 2000 nM | IC50 (HuP-T3): > 2000 nM | IC50 (NCI-H2030): > 2000 nM | IC50 (MDA-MB-415): 1390 nM | IC50 (A2058): > 2000 nM | IC50 (NCI-H441): > 2000 nM | IC50 (LK-2): > 2000 nM | IC50 (J82): > 2000 nM | IC50 (KYSE-510): > 2000 nM | IC50 (Calu-3): 1710 nM | IC50 (YAPC): > 2000 nM | IC50 (SAOS-2): > 2000 nM | IC50 (COLO-679): > 2000 nM | IC50 (BXPC-3): > 2000 nM | IC50 (SCC-25): > 2000 nM | IC50 (SK-HEP1): > 2000 nM | IC50 (COLO-741): > 2000 nM | IC50 (HOP-92): > 2000 nM | IC50 (HCC70): > 2000 nM | IC50 (NB7; Homo sapiens, NB7): > 2000 nM | IC50 (OVCAR-3): > 2000 nM | IC50 (Ca-Ski): > 2000 nM | IC50 (CAKI-1): > 2000 nM | IC50 (M14): > 2000 nM | IC50 (KP-4): > 2000 nM | IC50 (FaDu): > 2000 nM | IC50 (NCI-H1792): > 2000 nM | IC50 (HT-29): > 2000 nM | IC50 (NCI-H2405): > 2000 nM

Cc1ccc(NC(=O)c2ccc(CN3CCN(C)CC3)cc2)cc1Nc1nccc(-c2cccnc2)n1 [IMATINIB]
IC50 (SR; Homo sapiens, SR): > 2000 nM | IC50 (KMS-12-PE; Homo sapiens, KMS-12-PE): > 2000 nM | IC50 (MDA-MB-134-VI; Homo sapiens, MDA-MB-134-VI): > 2000 nM | IC50 (CMK; Homo sapiens, CMK): > 2000 nM | IC50 (NCI-H1963; Homo sapiens, NCI-H1963): > 2000 nM | IC50 (SCC-3; Homo sapiens, SCC-3): > 2000 nM | IC50 (LB647-SCLC; Homo sapiens, LB647-SCLC): > 2000 nM | IC50 (TALL-1; Homo sapiens, TALL-1): > 2000 nM | IC50 (BOKU): > 2000 nM | IC50 (MONO-MAC-6; Homo sapiens, MONO-MAC-6): > 2000 nM | IC50 (DG-75; Homo sapiens, DG-75): > 2000 nM | IC50 (SIMA; Homo sapiens, SIMA): > 2000 nM | IC50 (CP66-MEL): > 2000 nM | IC50 (RL; Homo sapiens, RL): > 2000 nM | IC50 (NB7; Homo sapiens, NB7): > 2000 nM | IC50 (RPMI 8402; Homo sapiens, RPMI 8402): > 2000 nM

COc1cc(N2CCC(N3CCN(C)CC3)CC2)ccc1Nc1ncc(Cl)c(Nc2ccccc2S(=O)(=O)C(C)C)n1 [TAE-684]
IC50 (SR; Homo sapiens, SR): 2.77 nM | IC50 (KMS-12-PE; Homo sapiens, KMS-12-PE): > 2000 nM | IC50 (MDA-MB-134-VI; Homo sapiens, MDA-MB-134-VI): > 2000 nM | IC50 (CMK; Homo sapiens, CMK): 255 nM | IC50 (NCI-H1963; Homo sapiens, NCI-H1963): > 2000 nM | IC50 (SCC-3; Homo sapiens, SCC-3): < 7.81 nM | IC50 (LB647-SCLC; Homo sapiens, LB647-SCLC): 1350 nM | IC50 (TALL-1; Homo sapiens, TALL-1): > 2000 nM | IC50 (BOKU): > 2000 nM | IC50 (MONO-MAC-6; Homo sapiens, MONO-MAC-6): 333 nM | IC50 (DG-75; Homo sapiens, DG-75): > 2000 nM | IC50 (SIMA; Homo sapiens, SIMA): > 2000 nM | IC50 (CP66-MEL): > 2000 nM | IC50 (RL; Homo sapiens, RL): > 2000 nM | IC50 (NB7; Homo sapiens, NB7): > 2000 nM | IC50 (RPMI 8402; Homo sapiens, RPMI 8402): > 2000 nM

COc1ccc(N(C(=O)Oc2c(C)cccc2C)c2ccnc(Nc3ccc(N4CCN(C)CC4)cc3)n2)c(OC)c1
IC50 (SR; Homo sapiens, SR): > 5120 nM | IC50 (KMS-12-PE; Homo sapiens, KMS-12-PE): > 5120 nM | IC50 (MDA-MB-134-VI; Homo sapiens, MDA-MB-134-VI): > 5120 nM | IC50 (CMK; Homo sapiens, CMK): > 5120 nM | IC50 (NCI-H1963; Homo sapiens, NCI-H1963): > 5120 nM | IC50 (SCC-3; Homo sapiens, SCC-3): > 5120 nM | IC50 (LB647-SCLC; Homo sapiens, LB647-SCLC): > 5120 nM | IC50 (TALL-1; Homo sapiens, TALL-1): > 5120 nM | IC50 (BOKU): 1810 nM | IC50 (MONO-MAC-6; Homo sapiens, MONO-MAC-6): > 5120 nM | IC50 (DG-75; Homo sapiens, DG-75): > 5120 nM | IC50 (SIMA; Homo sapiens, SIMA): > 5120 nM | IC50 (CP66-MEL): > 5120 nM | IC50 (RL; Homo sapiens, RL): > 5120 nM | IC50 (NB7; Homo sapiens, NB7): > 5120 nM | IC50 (RPMI 8402; Homo sapiens, RPMI 8402): > 5120 nM

CC(C)C[C@@H](C=O)NC(=O)[C@H](CC(C)C)NC(=O)[C@H](CC(C)C)NC(=O)OCc1ccccc1 [MG-132] (Cbz-Leu-Leu-Leu-aldehyde)
IC50 (SR; sr): > 1000 nM | IC50 (KMS-12-PE; kms-12-pe): > 1000 nM | IC50 (MDA-MB-134-VI; mda-mb-134-vi): > 1000 nM | IC50 (CMK; cmk): 311 nM and > 1000 nM | IC50 (NCI-H1963; Homo sapiens, NCI-H1963): > 1000 nM | IC50 (NCI-H1963; nci-h1963): > 1000 nM | IC50 (SCC-3; Homo sapiens, SCC-3): > 1000 nM | IC50 (SCC-3; scc-3): > 1000 nM | IC50 (LB647-SCLC; Homo sapiens, LB647-SCLC): > 1000 nM | IC50 (LB647-SCLC; lb647-sclc): > 1000 nM | IC50 (TALL-1; tall-1): > 1000 nM | IC50 (BOKU): > 1000 nM | IC50 (MONO-MAC-6; Homo sapiens, MONO-MAC-6): 536 nM | IC50 (MONO-MAC-6; mono-mac-6): 718 nM | IC50 (DG-75; Homo sapiens, DG-75): > 1000 nM | IC50 (DG-75; dg-75): > 1000 nM | IC50 (SIMA; sima): > 1000 nM | IC50 (RL; rl): > 1000 nM | IC50 (NB7; nb7): > 1000 nM | IC50 (RPMI 8402; rpmi-8402): > 1000 nM
